Test results taken from PubChem BioAssay (NCI).
Where “and” joins values, the source holds several entries; their conditions need not be identical. Identical values can stand only once.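 Compound exposure: 48 hours, 5 concentrations, 96-well plates. The concentration for 50% growth inhibition is given as GI50. TGI marks complete inhibition of growth.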

Columns and labels:
Assay in all cases: NCI-60 cell line screen, 48 h
OVCAR-8 ovarian = system: OVCAR-8 ovarian
TK-10 renal = system: TK-10 renal
CAKI-1 renal = system: CAKI-1 renal
SF-268 CNS = system: SF-268 CNS
CCRF-CEM leukemia = system: CCRF-CEM leukemia
OVCAR-5 ovarian = system: OVCAR-5 ovarian
MOLT-4 leukemia = system: MOLT-4 leukemia
K-562 leukemia = system: K-562 leukemia
SN12C renal = system: SN12C renal
HCC-2998 colon = system: HCC-2998 colon

Compound | GI50 (OVCAR-8 ovarian) | TGI (OVCAR-8 ovarian) | GI50 (TK-10 renal) | TGI (TK-10 renal) | GI50 (CAKI-1 renal) | TGI (CAKI-1 renal) | GI50 (SF-268 CNS) | TGI (SF-268 CNS) | GI50 (CCRF-CEM leukemia) | TGI (CCRF-CEM leukemia) [µM] | GI50 (OVCAR-5 ovarian) | TGI (OVCAR-5 ovarian) [µM] | GI50 (MOLT-4 leukemia) | TGI (MOLT-4 leukemia) | GI50 (K-562 leukemia) | TGI (K-562 leukemia) [µM] | GI50 (SN12C renal) | TGI (SN12C renal) [µM] | GI50 (HCC-2998 colon) | TGI (HCC-2998 colon)
O=[N+]([O-])/C(=C/C=C/c1ccccc1)c1ccccc1 | 3.27 µM | 11.2 µM | 2.04 µM | 4.46 µM | 0.805 µM | 3.06 µM | 2.96 µM | 8.93 µM | 0.764 µM | 2.39 | 2.38 µM | 6.06 | 1.47 µM | 3.61 µM | 1.7 µM | 5 | 1.85 µM | 4.03 | 1.92 µM | 4.14 µM
CCOc1ccc(N=Nc2c(-c3ccccc3)nn(C(=O)CC(=O)Nc3ccccc3Cl)c2-c2ccccc2)cc1 |  | > 100 µM |  | > 100 µM |  | > 100 µM |  | > 100 µM |  | > 100 |  | > 100 |  | > 100 µM |  | > 100 |  | > 100 |  | > 100 µM
O=C(Nc1ccc(-n2cc(-c3ccncc3)c(-c3ccc(Cl)c(O)c3)n2)cc1)c1ccc(Cl)c(Cl)c1 | 4.68 µM | > 100 µM | > 100 µM | > 100 µM | 3.67 µM | 21.3 µM | > 100 µM | > 100 µM | 4.52 µM | > 100 | 10.2 µM | > 100 | 4.02 µM | > 100 µM | 1.32 µM | > 100 | 5.7 µM | > 100 | 3.43 µM | 19.7 µM
CC(C)(C)c1cnc(CSc2cnc(NC(=O)C3CCNCC3)s2)o1 | 0.307 µM and 0.365 µM | 19.7 µM and > 10 µM | 0.62 µM and 0.794 µM | 5.23 µM and > 10 µM | 3.89 µM and > 3 µM | 32.7 µM and > 10 µM | 0.185 µM and 0.281 µM | 2.48 µM and > 3.39 µM | 0.251 µM and 0.168 µM | > 100 | 0.241 µM and 0.124 µM | > 100 | 0.351 µM and 0.248 µM | 17.3 µM and > 2.99 µM | 0.337 µM and 0.229 µM | > 53.2 | 0.262 µM and 0.215 µM | > 63.3 | 0.27 µM and 0.243 µM | 3.79 µM and 1.67 µM
COc1ccc(C2=NOC3=c4ccccc4=CSC3=C2c2ccccc2)cc1 | 42.9 µM | > 100 µM | 54 µM | > 100 µM | 64.7 µM | > 100 µM | 23.5 µM | 79.6 µM | 21.7 µM | > 100 | 80.1 µM | > 100 | > 100 µM | > 100 µM | 51.2 µM | > 100 | 22 µM | 68.9 | > 100 µM | > 100 µM
Nc1cccc(C(=O)/C=C/c2ccccc2O)c1 |  | > 100 µM |  | > 100 µM |  | > 100 µM |  | > 100 µM |  | > 100 |  | > 100 |  | > 100 µM |  | > 100 |  | > 100 |  | > 100 µM
CCOC(=O)C(=O)Nc1nc2ccc(OC)cc2s1 |  | > 100 µM |  | > 100 µM |  | > 100 µM |  | > 100 µM |  | > 100 |  | > 100 |  | > 100 µM |  | > 100 |  | > 100 |  | > 100 µM
O=C(N[C@H]1CC2(C=C(I)C(=O)C(I)=C2)OC1=O)OCc1ccccc1 |  | 31.3 µM |  | 32.3 µM |  | 36.3 µM |  | 33.1 µM |  | 8.64 |  | 33.2 |  |  |  | 33.5 |  | 32.3 |  | 34.6 µM
COc1cc(C(=O)/C=C/c2c(C)n([O-])c3ccc(Cl)cc3[n+]2=O)cc(OC)c1OC | 3.18 µM | > 100 µM | 7.83 µM | > 100 µM | 10.3 µM | > 100 µM | 3.53 µM | 98.7 µM | 2.14 µM | 18.3 | 27 µM | > 100 | 3.06 µM | 27.9 µM | 3.09 µM | > 100 | 10.4 µM | > 100 | 12.8 µM | 38.7 µM
C=C(/C=C/C=C(\CO)CCC=C(C)C)[C@H]1CCC2([C@H](CCCO)/C(=C(/C)C=O)CC[C@]2(C)O)[C@H]1O (some centres not stated) |  | > 100 µM |  | > 100 µM |  | > 100 µM |  |  |  | > 100 |  | > 100 |  | > 100 µM |  | > 100 |  |  |  | > 100 µM
CN(C)CN(C)c1nc(N(C)C)nc(N(C)C)n1 |  | > 100 µM |  | > 100 µM |  | > 100 µM |  | > 100 µM |  | > 100 |  | > 100 |  | > 100 µM |  | > 100 |  | > 100 |  | > 100 µM
OCCN1CCCN(CCCN2c3ccccc3Sc3ccc(C(F)(F)F)cc32)CC1 | 3.46 µM | 12.2 µM | 1.68 µM | 3.58 µM | 2.3 µM | 6.26 µM | 3.6 µM | 15.5 µM | 2.42 µM | 5.76 | 3.21 µM | 15 | 2.39 µM | 5.2 µM | 1.57 µM | 3.23 | 4.5 µM | 18.5 | 1.81 µM | 3.33 µM
c1ccc2c(c1)n1nnnc1c1nnnn21 |  | > 100 µM |  | > 100 µM |  | > 100 µM |  | > 100 µM |  | > 100 |  | > 100 |  | > 100 µM |  | > 100 |  | > 100 |  | > 100 µM
CC(C)(C)OC(=O)CC(S(=O)(=O)c1ccccc1)S(=O)(=O)c1ccccc1 | 8.32 µM | 23.3 µM | 1.6 µM | 3.02 µM | 1.66 µM | 3.52 µM | 16.5 µM | 34.4 µM | 1.64 µM | 3.83 | 17.4 µM | 32.7 | 2.42 µM | 5.57 µM | 3.4 µM | 13.5 | 15.4 µM | 29.6 | 16 µM | 29.6 µM
Clc1cc(Cl)cc(Nc2ccc3c(OCCCN4CCOCC4)cccc3n2)c1 | 3.54 µM | 13.3 µM | 2.38 µM | 5 µM | 7.59 µM | 22.9 µM | 3 µM | 9.63 µM | 2.36 µM | 6.36 | 1.83 µM | 4.37 | 2.25 µM | 5.61 µM | 2.21 µM | 5.71 | 10.8 µM | 26.8 | 1.82 µM | 3.51 µM
